Assay results reported in publication PMC11061835, “Elucidating the Mechanism of Metabolism of Cannabichromene by Human Cytochrome P450s” (Journal of Natural Products, 2024).
Several values for one entry are separate records, joined by “and”; a condition that tells them apart may be missing. Equal values may be shown once.

What was measured:
[1] = tested on: CYP2C9; test: CBC metabolism by CYP2C9; format: in vitro ADME, human
Method: To study the kinetics of CBC metabolism, concentration dependent metabolism of CBC was carried out in the presence of various CYPs using the following procedure. CYP2J2, CYP2C8, CYP2D6, CYP2C9, and CYP3A4 (final concentration 0.5 μM) were initially dissolved in lipid containing POPC:POPS (8:2 v/v) followed by addition of CPR (final concentration 0.6 μM) in 0.1 M potassium phosphate buffer (pH 7.4). CBC (5–80 μM) was added and incubated at 37 °C for 10 min. The reaction was triggered by NADPH and extracted using the exact sample protocol as mentioned in the HLM section.
Samples were analyzed with the 5500 QTRAP LC/MS/MS system (Sciex, Framingham, MA) in the Metabolomics Lab of Roy J. Carver Biotechnology Center, University of Illinois at Urbana–Champaign. Software Analyst 1.7.1 was used for data acquisition and analysis. The 1200 series HPLC system (Agilent Technologies, Santa Clara, CA) includes a degasser, an autosampler, and a binary pump. […] Multiple reaction monitoring (MRM) was used for quantitation: CBC m/z 315.1 → m/z 135.0; 1-acetoxy-6′,7′-dihydroxy-CBC (JM-I-73) m/z 349.1→ m/z 193.0; 1″-hydroxy-CBC (JM-I-66) m/z 331.1→ m/z 275.1; 6′,7′-epoxy-CBC (JM-I-27) m/z 331.1→ m/z 193.0; 7′,10′-ene-6′-hydroxy-CBC (JM-I-30) m/z 331.1→ m/z 193.0; 8′-hydroxy-CBC (JM-I-32) […]→ m/z 77.0. Internal standard EET-EA-d11 was monitored at m/z 375.2→ m/z 357.1.

[2] = biological target: T1, CYP2J2 with CPR (Homo sapiens, UniProt P51589); test: NADPH activity assay, CYP2J2 with CPR; format: biochemical
T1 construct: His-tag; made in house; host or cells: E. coli DH-5α with pTGro7 plasmid (CYP)
T1 sequence (P51589 1-502): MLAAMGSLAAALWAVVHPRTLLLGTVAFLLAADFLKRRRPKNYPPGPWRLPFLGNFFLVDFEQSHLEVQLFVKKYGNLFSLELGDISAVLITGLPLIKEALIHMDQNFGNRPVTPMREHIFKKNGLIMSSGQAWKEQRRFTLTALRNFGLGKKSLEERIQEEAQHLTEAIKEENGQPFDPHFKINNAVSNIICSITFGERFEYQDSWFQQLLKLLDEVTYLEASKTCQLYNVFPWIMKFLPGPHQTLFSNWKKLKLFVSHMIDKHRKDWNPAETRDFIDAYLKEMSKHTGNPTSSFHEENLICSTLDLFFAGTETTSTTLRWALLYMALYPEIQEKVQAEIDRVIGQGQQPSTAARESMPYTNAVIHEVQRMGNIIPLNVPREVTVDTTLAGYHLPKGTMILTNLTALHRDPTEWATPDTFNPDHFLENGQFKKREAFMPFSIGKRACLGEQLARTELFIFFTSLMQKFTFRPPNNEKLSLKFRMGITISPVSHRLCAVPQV
T1 sequence (P16435 1-677 partner): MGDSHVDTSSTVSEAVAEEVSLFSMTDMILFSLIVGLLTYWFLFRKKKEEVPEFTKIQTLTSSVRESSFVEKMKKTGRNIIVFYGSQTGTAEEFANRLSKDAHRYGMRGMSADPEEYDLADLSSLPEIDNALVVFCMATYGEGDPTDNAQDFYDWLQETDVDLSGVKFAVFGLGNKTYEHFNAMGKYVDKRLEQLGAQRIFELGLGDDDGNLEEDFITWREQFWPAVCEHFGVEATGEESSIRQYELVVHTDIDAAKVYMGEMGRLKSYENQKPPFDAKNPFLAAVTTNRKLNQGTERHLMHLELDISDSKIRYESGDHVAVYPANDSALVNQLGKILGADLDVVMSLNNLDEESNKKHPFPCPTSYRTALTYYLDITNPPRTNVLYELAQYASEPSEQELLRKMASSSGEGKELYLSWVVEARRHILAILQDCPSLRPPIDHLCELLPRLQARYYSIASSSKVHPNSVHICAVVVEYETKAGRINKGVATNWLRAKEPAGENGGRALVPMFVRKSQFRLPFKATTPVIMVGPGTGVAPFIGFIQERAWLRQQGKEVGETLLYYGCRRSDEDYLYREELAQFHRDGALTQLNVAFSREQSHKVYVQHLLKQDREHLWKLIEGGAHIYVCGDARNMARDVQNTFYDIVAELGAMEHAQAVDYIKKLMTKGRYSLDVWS
Method: CYP-mediated NADPH oxidation was measured using kinetics mode in a Cary 300 UV–vis spectrometer (Agilent Technologies). 0.2 μM (final concentration) of CYP was taken in 0.1 M potassium phosphate buffer (pH 7.4) and incubated with 0.6 μM (final concentration) of CPR for 5 min with a reaction volume of 400 μL. The reaction was initiated with 200 μM of NADPH, and the absorption change was monitored over 10 min at 340 nm. The rate of NADPH consumption (or NADPH to NADP^+ conversion) was calculated by taking the molar extinction coefficient as 6.22 mM^–1 cm^–1 at 340 nm. To estimate the change in NADPH oxidation in the presence of CBC, both CYP and CPR were further incubated using CBC (final concentration 50 μM) for 5 min followed by measuring the change in absorbance at 340 nm as discussed earlier.

| SMILES | extent of 8′-hydroxy-CBC formation relative to 6′,7′-epoxy-CBC [1] | NADPH rate (CYP+CPR+CBC) ([2]; CYP2J2, CBC 50 μM) | percentage increase of NADPH consumption in the presence of CBC ([2]; CYP2J2, CBC 50 μM vs substrate-free) [%] |
| --- | --- | --- | --- |
| CCCCCc1cc(O)c2c(c1)OC(C)(CC/C=C(\C)CO)C=C2 (stereo not drawn) [8′-hydroxy-CBC] | approximately half | – | – |
| CCCCCc1cc(O)c2c(c1)OC(C)(CCC=C(C)C)C=C2 (stereo not drawn) [CBC, Cannabichromene] | – | 21.7 nmol/min/nmol and ~20 nmol/min/nmol | ~60 |
